Legend:
[1] = biological target: Coagulation factor X (Homo sapiens) (UniProt P00742); assay: In vitro inhibition of human coagulation factor X.
[2] = biological target: Plasminogen (Homo sapiens) (UniProt P00747); assay: Inhibitory activity against plasmin at pH 8.2
[3] = biological target: Vitamin K-dependent protein C (Homo sapiens) (UniProt P04070); assay: Inhibitory activity against Activated protein C at pH 8.2
[4] = biological target: Prothrombin (Homo sapiens) (UniProt P00734); assay: Inhibitory activity against thrombin at pH 8.2
[5] = biological target: T1, Coagulation factor VII (Homo sapiens) (UniProt P08709); assay: Inhibitory activity against Coagulation factor VII at pH 8.2
T1 sequence (whole entry): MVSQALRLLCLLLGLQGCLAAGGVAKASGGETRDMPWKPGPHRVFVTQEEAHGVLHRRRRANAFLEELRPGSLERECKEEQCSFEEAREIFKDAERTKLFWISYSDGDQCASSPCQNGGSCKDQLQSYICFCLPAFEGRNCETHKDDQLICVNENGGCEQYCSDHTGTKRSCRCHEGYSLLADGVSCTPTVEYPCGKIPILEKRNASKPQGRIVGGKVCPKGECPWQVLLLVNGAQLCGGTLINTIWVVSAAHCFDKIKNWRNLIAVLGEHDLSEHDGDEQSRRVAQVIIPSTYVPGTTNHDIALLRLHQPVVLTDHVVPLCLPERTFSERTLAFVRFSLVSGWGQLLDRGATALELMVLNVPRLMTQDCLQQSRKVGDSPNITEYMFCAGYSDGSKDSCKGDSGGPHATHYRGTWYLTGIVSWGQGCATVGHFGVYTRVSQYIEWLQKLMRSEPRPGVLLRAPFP

[6] = biological target: Tissue-type plasminogen activator (Homo sapiens) (UniProt P00750); assay: Inhibitory activity against tissue plasminogen activator (tissue plasminogen activator) at pH 8.2
Tissue-type plasminogen activator (Homo sapiens), sequence (P00750 36-562 limits assumed): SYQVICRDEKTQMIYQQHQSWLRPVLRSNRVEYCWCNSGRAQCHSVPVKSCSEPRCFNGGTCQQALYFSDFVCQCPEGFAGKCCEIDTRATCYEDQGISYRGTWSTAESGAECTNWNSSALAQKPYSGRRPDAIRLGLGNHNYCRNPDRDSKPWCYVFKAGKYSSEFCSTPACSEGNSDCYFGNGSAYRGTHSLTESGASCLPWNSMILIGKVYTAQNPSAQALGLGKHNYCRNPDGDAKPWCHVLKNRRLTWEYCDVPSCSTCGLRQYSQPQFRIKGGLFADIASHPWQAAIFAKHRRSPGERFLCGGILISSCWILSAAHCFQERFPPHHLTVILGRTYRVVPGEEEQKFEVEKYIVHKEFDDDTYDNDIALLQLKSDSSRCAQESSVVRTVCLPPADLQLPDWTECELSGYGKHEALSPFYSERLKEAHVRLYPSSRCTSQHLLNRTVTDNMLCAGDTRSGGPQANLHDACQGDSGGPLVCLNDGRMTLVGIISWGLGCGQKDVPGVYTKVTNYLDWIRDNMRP

[7] = biological target: Coagulation factor X (Homo sapiens) (UniProt P00742); assay: Inhibitory activity against serine protease Coagulation factor X at pH 8.2
[8] = biological target: Urokinase-type plasminogen activator (Homo sapiens) (UniProt P00749); assay: Inhibitory activity against urokinase-type plasminogen activator (microPa) at pH 8.2
[9] = biological target: Serine protease 1 (Homo sapiens) (UniProt P07477); assay: Inhibitory activity against trypsin at pH 8.2
Serine protease 1 (Homo sapiens), sequence (P07477 whole entry): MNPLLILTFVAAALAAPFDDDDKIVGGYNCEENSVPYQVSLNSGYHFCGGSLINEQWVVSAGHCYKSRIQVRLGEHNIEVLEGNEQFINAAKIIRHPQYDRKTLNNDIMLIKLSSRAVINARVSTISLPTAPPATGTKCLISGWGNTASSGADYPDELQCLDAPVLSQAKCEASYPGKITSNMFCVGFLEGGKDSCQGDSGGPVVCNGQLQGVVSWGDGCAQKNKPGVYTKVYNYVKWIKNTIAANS

[10] = biological target: Coagulation factor X (Homo sapiens) (UniProt P00742); assay: Inhibitory activity against serine protease Coagulation factor X at pH 7.4

Coagulation factor X (Homo sapiens), sequence (P00742 41-179 limits assumed): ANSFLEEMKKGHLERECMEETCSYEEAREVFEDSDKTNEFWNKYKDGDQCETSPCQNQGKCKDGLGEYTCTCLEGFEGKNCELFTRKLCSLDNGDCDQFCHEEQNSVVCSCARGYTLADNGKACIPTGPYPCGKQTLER
Coagulation factor X (Homo sapiens), sequence (P00742 235-488 limits assumed): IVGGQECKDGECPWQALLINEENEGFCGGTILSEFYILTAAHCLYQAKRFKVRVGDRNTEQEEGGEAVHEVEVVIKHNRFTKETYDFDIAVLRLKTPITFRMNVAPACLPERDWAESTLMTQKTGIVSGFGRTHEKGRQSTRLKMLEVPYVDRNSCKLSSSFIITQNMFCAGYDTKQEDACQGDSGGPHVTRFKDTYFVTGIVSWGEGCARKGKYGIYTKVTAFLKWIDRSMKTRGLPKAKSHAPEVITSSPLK
Plasminogen (Homo sapiens), sequence (P00747 whole entry, looked up): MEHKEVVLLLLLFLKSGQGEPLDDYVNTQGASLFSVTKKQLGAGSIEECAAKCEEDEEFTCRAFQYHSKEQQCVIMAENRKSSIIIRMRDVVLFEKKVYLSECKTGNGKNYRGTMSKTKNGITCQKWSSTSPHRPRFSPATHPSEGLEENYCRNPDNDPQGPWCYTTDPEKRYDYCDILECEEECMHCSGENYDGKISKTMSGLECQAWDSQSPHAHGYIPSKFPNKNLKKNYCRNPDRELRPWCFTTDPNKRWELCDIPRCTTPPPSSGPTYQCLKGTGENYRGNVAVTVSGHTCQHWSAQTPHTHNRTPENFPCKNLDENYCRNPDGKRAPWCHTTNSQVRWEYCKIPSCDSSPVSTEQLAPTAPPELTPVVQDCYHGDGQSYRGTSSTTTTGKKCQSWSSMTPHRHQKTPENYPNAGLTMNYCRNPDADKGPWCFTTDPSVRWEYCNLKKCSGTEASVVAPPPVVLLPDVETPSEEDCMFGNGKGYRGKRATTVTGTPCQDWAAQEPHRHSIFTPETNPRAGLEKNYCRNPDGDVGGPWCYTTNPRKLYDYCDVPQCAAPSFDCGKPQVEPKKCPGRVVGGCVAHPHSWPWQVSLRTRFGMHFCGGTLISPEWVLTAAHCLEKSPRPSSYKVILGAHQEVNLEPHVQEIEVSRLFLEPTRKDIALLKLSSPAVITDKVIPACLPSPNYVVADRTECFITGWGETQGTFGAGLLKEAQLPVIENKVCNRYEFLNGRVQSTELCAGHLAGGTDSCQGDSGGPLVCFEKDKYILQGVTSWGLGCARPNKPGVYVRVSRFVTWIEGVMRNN
Vitamin K-dependent protein C (Homo sapiens), sequence (P04070 43-197 limits assumed): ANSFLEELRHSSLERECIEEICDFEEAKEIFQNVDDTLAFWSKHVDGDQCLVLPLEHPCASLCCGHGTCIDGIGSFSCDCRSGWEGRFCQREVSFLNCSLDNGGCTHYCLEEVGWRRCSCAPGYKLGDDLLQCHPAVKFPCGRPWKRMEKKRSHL
Vitamin K-dependent protein C (Homo sapiens), sequence (P04070 212-461 limits assumed): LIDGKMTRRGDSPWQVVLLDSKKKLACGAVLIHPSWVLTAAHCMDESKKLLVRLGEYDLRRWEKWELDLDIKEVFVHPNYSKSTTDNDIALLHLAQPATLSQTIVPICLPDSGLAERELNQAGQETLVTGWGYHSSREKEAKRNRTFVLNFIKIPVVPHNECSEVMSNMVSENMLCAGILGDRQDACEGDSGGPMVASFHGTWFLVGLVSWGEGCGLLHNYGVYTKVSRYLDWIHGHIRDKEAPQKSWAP

O=C(O)c1cccc(NC(=O)c2ccccc2NC(=O)c2sc3ccccc3c2Cl)c1
Ki' [1]: > 150 µM

O=C(Nc1ccccc1C(=O)N1CCOCC1)c1sc2ccccc2c1Cl
Ki' [1]: > 150 µM

Cc1ccc(NC(=O)c2sc3ccccc3c2Cl)c(C(=O)Nc2ccccc2Cl)c1
Ki' [1]: > 1200 µM

Cc1ccc(NC(=O)c2sc3ccccc3c2Cl)c(C(=O)Nc2ccc(N(C)C)cc2)c1
Ki' [1]: > 1200 µM

Cc1ccc(NC(=O)c2sc3ccccc3c2Cl)c(C(=O)Nc2ccncc2)c1
Ki' [1]: 22.1 µM

Cc1ccc(NC(=O)c2sc3ccccc3c2Cl)c(C(=O)Nc2ccc(Cl)cc2)c1
Ki' [1]: 0.21 µM

O=C(O)c1ccc(NC(=O)c2ccccc2NC(=O)c2sc3ccccc3c2Cl)cc1
Ki' [1]: > 150 µM

Cc1ccc(NC(=O)c2sc3ccccc3c2Cl)c(C(=O)N2CCNCC2)c1
Ki' [1]: > 1200 µM

O=C(Nc1ccccn1)c1ccccc1NC(=O)c1sc2ccccc2c1Cl
Ki' [1]: 7.8 µM

Cc1ccc(NC(=O)c2cc3cc(O)ccc3s2)c(C(=O)Nc2ccc(F)cc2)c1
Ki' [1]: 3.5 µM

Cc1ccc(NC(=O)c2sc3ccccc3c2Cl)c(C(=O)Nc2ccc(F)cc2)c1
Ki' [2]: > 150 µM
Ki' [3]: > 150 µM
Ki' [4]: 125 µM
Ki' [5]: > 900 µM
Ki' [6]: > 150 µM
Ki' [7]: 2.1 µM
Ki' [8]: > 150 µM
Ki' [9]: > 150 µM
Ki' [10]: 0.042 µM
Ki' [1]: 0.57 µM

Cc1ccc(NC(=O)c2sc3ccccc3c2Cl)c(C(=O)Nc2ccc(N3CCOCC3)cc2)c1
Ki' [1]: 436 µM

Cc1ccc(NC(=O)c2sc3ccccc3c2Cl)c(C(=O)Nc2ccc(O)cc2)c1
Ki' [1]: 97 µM

O=C(Nc1ccc(F)cc1)c1ccccc1NC(=O)c1sc2ccccc2c1Cl
Ki' [1]: 3.1 µM

Cc1ccc(NC(=O)c2sc3ccccc3c2Cl)c(C(=O)Nc2ccc3c(c2)OCO3)c1
Ki' [1]: 17.7 µM

Cc1ccc(NC(=O)c2cc3ccc(O)cc3s2)c(C(=O)Nc2ccc(F)cc2)c1
Ki' [1]: 10 µM

COc1ccc(NC(=O)c2cc(C)ccc2NC(=O)c2sc3ccccc3c2Cl)cc1
Ki' [1]: 2.1 µM
